In general, IC50 refers to the point on the concentration scale where inhibition reaches its midpoint.

Experiment [1] has as its system hypertonic saline provoked nasal secretion. Nature of the experiment: Contralateral nasal fluid secretion (MRI) after ipsilateral hypertonic saline challenge in sensitised guinea pig. It counts as in vivo. To be noted: topical micronised 1 mg/ml, 1 hour pre-treatment, 10% hypertonic saline challenge; p<0.005. The procedure: (§1) Dunkin Hartley guinea pigs (ca. 180-200 g) were intranasally sensitised into both nostrils twice daily for 5 days with 25 μl of 10 μg ovalbimun plus 10 mg aluminium hydroxide in saline. This was followed up with one week of intranasal challenge in both nostrils with ovalbumin 25 μl of a 5 mg/ml saline solution per nostril (weekends eliminated).
(§2) Six animals per group were studied and a repeat of each study conducted to provide up to 12 animals per group in the final data set. Animals were pretreated with Compound 1 (intranasal administration 25 μl per nostril of a suspension or oral administration 1 ml of a solution in 50% deionised water 5% DMSO and 45% PEG 200). At a set time point the animals were anaethetised with urethane (1.5 g/kg) i.p. and scanned with magnetic resonance imaging (MRI) to obtain baseline nasal images. Each animal was then removed from the scanner and received an ipsilateral nasal challenge of capsaicin (50 μl of a solution 0.3 mM 5% DMSO, 5% Tween 80, 90% Phosphate buffered saline)) or 10% hypertonic saline solution (50 μl) (administered by pipette. The animal was rescanned at 10 minutes post-challenge to measure the contralateral fluid volumes.
(§3) The fluid measurement was made using standard T2 weighted spin echo MRI sequences on a 2 Tesla Bruker Medspec MRI scanner. The raw data was collected using Paravision 3.0.2 (Bruker) software. […]

The subject of experiment [2] is Capsaicin Induced Currents recorded from Nasally Innervated Guinea-Pig Trigeminal Ganglia Cell Bodies. Nature of the experiment: Whole cell patch clamp of capsaicin induced currents in nasally innervated trigeminal ganglia neurons. It is filed as cell-based. The procedure: Nasal afferent neurons were retrogradely labelled by using DiIC13(3) solution (2% in DMSO, sonicated to ensure solubility) (Dil, Invitrogen), A guinea pig was dosed with atropine (1 mg/kg i.p.) 5 minutes prior to anaesthesia with isoflurane. Once unconscious 25 μl of the Dil solution was placed into the right nostril and the guinea pig allowed to recover. After 24 hours the procedure was repeated and the left nostril dosed. After a period of 2 weeks the guinea pig was killed via CO2 asphyxiation and the trigeminal ganglia rapidly dissected. An area of approximately 3 mm×2 mm which contained neurons that innervated the nose was isolated (J. Allergy Clin. Immunol. 2005, 116, 1282), cut into smaller pieces and incubated in enzyme buffer (8 mg papain in 4 ml L-15) at 37° C. for 40 min. The papain solution was removed and the tissue washed three times with 5-5 media (5-5 Media was prepared by the addition of 5 ml Fetal Bovine Serum, 5 ml Horse Serum, 1 ml 5000 Units Penicillin/5000 […] Streptomycin, 1 ml 30% Glucose and 0.33 ml of 1× stock Insulin Transferrin Sodium Selenite to 90 ml Minimum Essential Media with Earle's salts and Glutamax). The neurons were dissociated by trituration with 3 fire-polished glass Pastuer pipettes of decreasing tip size, then the resulting cell suspension filtered and centrifuged (1000 g for 4 min). The pellet was resuspended in 300 μl of 5-5 media. 25 μl of the cell suspension was plated onto poly-D-lysine and laminin coated 12 mm glass coverslips and placed in an incubator at 37° C. After 2 hours the coverslips were flooded with 5-5 media and used within 48 hours. Conventional whole cell patch clamp techniques were employed under voltage clamp (holding potential of −70 mV) at room temperature. Drug solutions were applied to the cell using a Rapid Solution Changer (Biologic). Cell bodies that had innervated the nose were identified using a fluorescence based microscope. All data was analysed using pClamp version 10.2.0.9 and 10.2.0.10 (Molecular Devices Inc).

Experiment [3] concerns capsaicin provoked nasal secretion. Nature of the experiment: Contralateral nasal fluid secretion (MRI) after ipsilateral capsaicin challenge in sensitised guinea pig. It is filed as in vivo. The settings on record: for reduction of contralateral fluid secretion: oral, non micronised, 1 hour prior to 0.3 mM capsaicin challenge; for inhibition of capsaicin provoked nasal secretion: topical (intranasal) non-micronised. How it is done:
as §1, §2
The fluid measurement was made using standard T2 weighted spin echo MRI sequences on a 2 Tesla Bruker Medspec MRI scanner. The raw data was collected using Paravision 3.0.2 (Bruker) software. Fluid measurements were made using grey level thresholding technique using Mayo Clinic software Analyze 7.0. Statistical analysis was carried out using the Statistica 6.0 software by StatSoft

Experiment [4] has as its system capsaicin provoked nasal tissue response. Nature of the experiment: Contralateral nasal tissue volume (MRI) after ipsilateral capsaicin challenge in guinea pig. To be noted: 1 hour pre-treatment, 0.3 mM capsaicin challenge. It counts as in vivo. How it is done:
as §1, §2, §3

With `O=C(Nc1ccccc1Br)N[C@@H]1CCN(c2ccc(C(F)(F)F)cn2)C1` [Compound 1, N-(2-bromophenyl)-N′-[((R)-1-(5-trifluoromethyl-2-pyridyl)pyrrolidin-3-yl)]urea], the “inhibition of the hypertonic saline response (nasal secretion)” value in experiment [1] was found to be 68%. For the same compound, the IC50 in experiment [2] (Cavia porcellus, Neuron, 1 μM capsaicin, voltage clamp −70 mV, room temperature, Hill equation fit, n>4, read-out: IC50, inhibition of capsaicin response (inward current)) came to 59 nM. Moreover, in experiment [2] (voltage clamp −70 mV), the “inhibition of the capsaicin response (current), concentration dependence” value was “concentration related inhibition”. Further, the “reversibility of inhibition on switching from capsaicin and Compound 1 to capsaicin only” value in experiment [2] (voltage clamp −70 mV) is “rapid reversal”. Moreover, the “reduction of contralateral fluid secretion” value in experiment [3] (10 mg/kg, p<0.05) is listed as “ca. 50%”; in experiment [3] (30 mg/kg, p<0.001), “ca. 70%”. Moreover, the “inhibition of capsaicin provoked nasal secretion” value is above 50% in experiment [3] (10 mg/ml, 1 hour pre-treatment, p<0.005) and “ca. 75%” in experiment [3] (30 mg/ml, 1 hour pre-treatment). The “inhibition of the capsaicin response (nasal secretion)” value in experiment [3] (topical micronised, 1 hour pre-treatment, all the doses evaluated) is given as “significant inhibition”. The “inhibition of contralateral response (nasal secretion)” value amounted to 62% in experiment [3] (topical micronised, capsaicin challenge 12 hours after pre-treatment) and 52% in experiment [3] (topical micronised, capsaicin challenge 24 hours after pre-treatment). Also, the “reduction of contralateral tissue swelling compared to vehicle control” value in experiment [4] (topical micronised 3 mg/ml, p<0.05) stood at 56%; in experiment [4] (topical micronised 30 mg/ml, p<0.01), 83%.
`COc1cc(CNC(=O)CCCC/C=C/C(C)C)ccc1O` [capsaicin, reference compound]: in experiment [2] (1 μM capsaicin, small diameter (<30 μm) fluorescent neurons, voltage clamped at −70 mV), the “cells tested producing an inward current” value came out at 56%.

The record behind these values is patent publication US20110200646A1, “The TRPVL Antagonists SB-795498 For Treating Rhinitis” (priority 2008, published 2011).
